Test results published in the NIST ThermoML archive (doi:10.1021/je100850z).
Where “and” joins values, the source holds several entries; their conditions need not be identical. Identical values can stand only once. Numbers after ± are expanded uncertainties.

Legend:
[1] = Crystal; for vapor or sublimation pressure: Calculated from knudsen effusion weight loss; for Normal melting temperature: DTA
[2] = Molar enthalpy of transition or fusion; settings: Crystal; DSC

With `O=c1c2ccccc2sc2ccccc12` [thioxanthone] the “vapor or sublimation pressure” value ([1]; 369.12 K) was 0.000187 ± 2.1e-05 kPa and 0.000186 ± 2.1e-05 kPa and 0.000178 ± 2.1e-05 kPa, the “vapor or sublimation pressure” value ([1]; 371.2 K) was 0.000232 ± 2.2e-05 kPa and 0.000226 ± 2.2e-05 kPa and 0.000222 ± 2.1e-05 kPa and the “vapor or sublimation pressure” value ([1]; 373.26 K) was 0.000284 ± 2.2e-05 kPa and 0.000274 ± 2.2e-05 kPa and 0.00027 ± 2.2e-05 kPa. The “vapor or sublimation pressure” value ([1]; 375.12 K) was 0.000335 ± 2.3e-05 kPa and 0.00032 ± 2.3e-05 kPa and 0.000321 ± 2.3e-05 kPa, the “vapor or sublimation pressure” value ([1]; 377.11 K) was 0.000413 ± 2.5e-05 kPa and 0.000405 ± 2.5e-05 kPa and 0.000383 ± 2.4e-05 kPa and the “vapor or sublimation pressure” value ([1]; 379.2 K) was 0.000496 ± 2.7e-05 kPa and 0.000495 ± 2.7e-05 kPa and 0.00048 ± 2.6e-05 kPa. For the same molecule, the “vapor or sublimation pressure” value ([1]; 381.27 K) was 0.000611 ± 2.9e-05 kPa and 0.000592 ± 2.9e-05 kPa and 0.000579 ± 2.9e-05 kPa, the “vapor or sublimation pressure” value ([1]; 383.12 K) was 0.000711 ± 3.2e-05 kPa and 0.000701 ± 3.2e-05 kPa and 0.000664 ± 3.1e-05 kPa and the “vapor or sublimation pressure” value ([1]; 385.27 K) was 0.000863 ± 3.7e-05 kPa and 0.00082 ± 3.5e-05 kPa and 0.00081 ± 3.5e-05 kPa. For the same molecule, the “vapor or sublimation pressure” value ([1]; 387.2 K) was 0.001018 ± 7.9e-05 kPa and 0.001001 ± 7.8e-05 kPa and 0.000962 ± 3.9e-05 kPa, the Normal melting temperature [1] was 213.5 ± 0.9 °C and the “Molar enthalpy of transition or fusion” value [2] was 6.79 ± 0.143 kcal/mol.
With `O=c1c2ccccc2oc2ccccc12` [9H-xanthen-9-one] the “vapor or sublimation pressure” value ([1]; 342.22 K) was 0.00013 ± 2.1e-05 kPa and 0.000132 ± 2.1e-05 kPa and 0.000129 ± 2.1e-05 kPa, the “vapor or sublimation pressure” value ([1]; 344.15 K) was 0.000163 ± 2.1e-05 kPa and 0.00016 ± 2.1e-05 kPa and 0.000157 ± 2.1e-05 kPa and the “vapor or sublimation pressure” value ([1]; 346.26 K) was 0.000197 ± 2.1e-05 kPa and 0.000201 ± 2.1e-05 kPa and 0.000196 ± 2.1e-05 kPa. For the same molecule, the “vapor or sublimation pressure” value ([1]; 348.26 K) was 0.000238 ± 2.2e-05 kPa and 0.00024 ± 2.2e-05 kPa and 0.000245 ± 2.2e-05 kPa, the “vapor or sublimation pressure” value ([1]; 350.26 K) was 0.000301 ± 2.3e-05 kPa and 0.000303 ± 2.3e-05 kPa and 0.000295 ± 2.3e-05 kPa and the “vapor or sublimation pressure” value ([1]; 354.2 K) was 0.000451 ± 2.6e-05 kPa and 0.000452 ± 2.6e-05 kPa and 0.000434 ± 2.5e-05 kPa. The “vapor or sublimation pressure” value ([1]; 356.21 K) was 0.000553 ± 2.8e-05 kPa and 0.000546 ± 2.8e-05 kPa and 0.000529 ± 2.7e-05 kPa, the “vapor or sublimation pressure” value ([1]; 358.26 K) was 0.000674 ± 3.1e-05 kPa and 0.000667 ± 3.1e-05 kPa and 0.000658 ± 3.1e-05 kPa and the “vapor or sublimation pressure” value ([1]; 360.15 K) was 0.000814 ± 3.5e-05 kPa and 0.000799 ± 3.5e-05 kPa and 0.000781 ± 3.4e-05 kPa. The “vapor or sublimation pressure” value ([1]; 362.22 K) was 0.000989 ± 4e-05 kPa and 0.000954 ± 3.9e-05 kPa, the Normal melting temperature [1] was 175.2 ± 0.9 °C and the “Molar enthalpy of transition or fusion” value [2] was 6.36 ± 0.167 kcal/mol.
With `c1ccc2c(c1)Sc1ccccc1S2` [thianthrene] the “vapor or sublimation pressure” value ([1]; 344.27 K) was 0.000161 ± 2.1e-05 kPa and 0.000163 ± 2.1e-05 kPa, the “vapor or sublimation pressure” value ([1]; 346.12 K) was 0.0002 ± 2.1e-05 kPa and 0.000198 ± 2.1e-05 kPa and 0.000197 ± 2.1e-05 kPa and the “vapor or sublimation pressure” value ([1]; 348.1 K) was 0.000246 ± 2.2e-05 kPa and 0.000243 ± 2.2e-05 kPa and 0.000239 ± 2.2e-05 kPa. The “vapor or sublimation pressure” value ([1]; 350.26 K) was 0.000301 ± 2.3e-05 kPa and 0.000299 ± 2.3e-05 kPa, the “vapor or sublimation pressure” value ([1]; 352.11 K) was 0.00037 ± 2.4e-05 kPa and 0.000368 ± 2.4e-05 kPa and 0.000362 ± 2.4e-05 kPa and the “vapor or sublimation pressure” value ([1]; 354.1 K) was 0.000447 ± 2.6e-05 kPa and 0.000446 ± 2.5e-05 kPa and 0.000439 ± 2.5e-05 kPa. The “vapor or sublimation pressure” value ([1]; 356.26 K) was 0.000549 ± 2.8e-05 kPa and 0.00056 ± 2.8e-05 kPa and 0.000555 ± 2.8e-05 kPa, the “vapor or sublimation pressure” value ([1]; 358.1 K) was 0.00068 ± 3.1e-05 kPa and 0.000687 ± 3.2e-05 kPa and 0.000669 ± 3.1e-05 kPa and the “vapor or sublimation pressure” value ([1]; 362.05 K) was 0.000992 ± 4e-05 kPa and 0.000995 ± 4.1e-05 kPa and 0.000973 ± 4e-05 kPa. The “vapor or sublimation pressure” value ([1]; 364.06 K) was 0.001197 ± 9.6e-05 kPa and 0.001196 ± 9.6e-05 kPa and 0.00117 ± 9.4e-05 kPa.
With `O=C1c2ccccc2C(=O)c2ccccc21` [9,10(9H,10H)-anthracenedione] the “vapor or sublimation pressure” value ([1]; 377.06 K) was 0.000173 ± 2.1e-05 kPa and 0.000164 ± 2.1e-05 kPa, the “vapor or sublimation pressure” value ([1]; 379.08 K) was 0.00021 ± 2.1e-05 kPa and 0.0002 ± 2.1e-05 kPa and the “vapor or sublimation pressure” value ([1]; 381.26 K) was 0.00025 ± 2.2e-05 kPa and 0.000246 ± 2.2e-05 kPa. For the same molecule, the “vapor or sublimation pressure” value ([1]; 383.26 K) was 0.000299 ± 2.3e-05 kPa and 0.000302 ± 2.3e-05 kPa, the “vapor or sublimation pressure” value ([1]; 385.26 K) was 0.000359 ± 2.4e-05 kPa and 0.000352 ± 2.4e-05 kPa and the “vapor or sublimation pressure” value ([1]; 391.26 K) was 0.000618 ± 3e-05 kPa. For the same molecule, the “vapor or sublimation pressure” value ([1]; 393.08 K) was 0.000743 ± 3.3e-05 kPa and 0.000716 ± 3.2e-05 kPa, the “vapor or sublimation pressure” value ([1]; 395.03 K) was 0.000886 ± 3.7e-05 kPa and the Normal melting temperature [1] was 283.6 ± 0.5 °C. For the same molecule, the “Molar enthalpy of transition or fusion” value [2] was 8.68 ± 0.222 kcal/mol.
In the case of `O=C1c2ccccc2Cc2ccccc21` [9(10H)-anthracenone], the “vapor or sublimation pressure” value ([1]; 346.15 K) is reported as 0.000131 ± 2.1e-05 kPa and 0.000128 ± 2.1e-05 kPa, the “vapor or sublimation pressure” value ([1]; 348.14 K) is reported as 0.000162 ± 2.1e-05 kPa and 0.000156 ± 2.1e-05 kPa and the “vapor or sublimation pressure” value ([1]; 351.13 K) is reported as 0.000223 ± 2.2e-05 kPa and 0.000217 ± 2.1e-05 kPa and 0.000221 ± 2.1e-05 kPa. For the same molecule, the “vapor or sublimation pressure” value ([1]; 354.18 K) was 0.000299 ± 2.3e-05 kPa and 0.00029 ± 2.2e-05 kPa and 0.000307 ± 2.3e-05 kPa, the “vapor or sublimation pressure” value ([1]; 355.68 K) was 0.000359 ± 2.4e-05 kPa and 0.000354 ± 2.4e-05 kPa and 0.000348 ± 2.4e-05 kPa and the “vapor or sublimation pressure” value ([1]; 357.19 K) was 0.00041 ± 2.5e-05 kPa and 0.000405 ± 2.5e-05 kPa and 0.000396 ± 2.4e-05 kPa. For the same molecule, the “vapor or sublimation pressure” value ([1]; 360.15 K) was 0.000558 ± 2.8e-05 kPa and 0.000553 ± 2.8e-05 kPa and 0.000533 ± 2.8e-05 kPa, the “vapor or sublimation pressure” value ([1]; 363.14 K) was 0.000744 ± 3.3e-05 kPa and 0.000727 ± 3.3e-05 kPa and 0.0007 ± 3.2e-05 kPa and the “vapor or sublimation pressure” value ([1]; 365.14 K) was 0.000895 ± 3.7e-05 kPa and 0.000879 ± 3.7e-05 kPa and 0.00084 ± 3.6e-05 kPa. For the same molecule, the Normal melting temperature [1] was 156.4 ± 0.5 °C and the “Molar enthalpy of transition or fusion” value [2] was 5.35 ± 0.143 kcal/mol.
